According to patent US20130337564A1, “Treatment of Pluripotent Cells” (Janssen Biotech, Inc., priority 2012, published 2013):

Tests used:
[1] = system: human embryonic stem cells (H9 or H1 lines); test: Plate reader (MTS) proliferation assay; format: cell-based; settings: for activity at 10 µM: Homo sapiens, Embryonic stem cell, 96 h, 10 μM test compound with 100 ng/ml activin A on days 1-2, MTS OD490 on day 4, vs Activin A/Wnt3a positive control, strong and moderate hits; for Average: average of replicate raw data
Summary of the method: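 H9 or H1 cells on Matrigel, washed, then given DMEM:F12 with 0.5% FCS, 100 ng/ml activin A and 10 μM compound (days 1–2), then 2% FCS plus activin A (days 3–4). MTS added day 4, OD490 read after 1.5–4 h at 37 °C; triplicates as percent of activin A/Wnt3a control.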

[2] = system: human embryonic stem cells (H9 line); test: High content screening assay: cell number (proliferative response); format: cell-based; settings: for fold induction at 10 µM: Homo sapiens, Embryonic stem cell, 10 μM test compound with 100 ng/ml activin A on days 1-2, H9, total cell number by IN Cell Analyzer, strong and moderate hits, read-out: Proliferative Response, Fold over Wnt 3a/AA control
Summary of the method: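 H9 hESCs on MATRIGEL treated days 1-2 with 10 μM compound in DMEM:F12, 0.5% FCS, 100 ng/ml activin A; days 3-4 with 2% FCS plus activin A without compound. Fixed cells immunostained for Sox17 or HNF-3beta with Draq5 nuclear counterstain. Cell number and staining intensity quantified by high-content imaging, 12 fields/well.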

[3] = cell number in the wells analysed for HNF-3b expression
[4] = cell number in the wells analysed for SOX-17 expression

| Compound | activity at 10 µM [1] [%] | Average [1] | fold induction at 10 µM [2] | Proliferative Response Total cells [2, 3] | Proliferative Response Total cells [2, 4] | Average (of Raw Data) ([1]; plate reader raw signal, mean of replicate wells, proliferation of human embryonic stem cells) |
| --- | --- | --- | --- | --- | --- | --- |
| O=C1NC(=O)C(c2cn(-c3cccnc3)c3ccccc23)=C1c1cn(CCO)c2ccccc12 [Compound 206, 3-[1-(2-Hydroxyethyl)-1H-indol-3-yl]-4-(1-pyridin-3-yl-1H-indol-3-yl)-1H-pyrrole-2,5-dione] | 108 | 1.7251 | 1.42 | 10331 | 11886 |  |
| Cn1ccc(C2=C(c3cn(CCCO)c4ncccc34)C(=O)NC2=O)n1 [Compound 209] | 67.4 | 1.0739 |  | 4209 | 2473 |  |
| COc1ccccc1C1=C(c2cn(-c3cccnc3)c3ccccc23)C(=O)NC1=O [Compound 216, 3-[2-(Methyloxy)phenyl]-4-(1-pyridin-3-yl-1H-indol-3-yl)-1H-pyrrole-2,5-dione] | 76.9 | 1.1235 |  | 8479 | 5991 |  |
| Cc1c[nH]c(-c2cnc(NCCNc3ccc(C#N)cn3)nc2-c2ccc(Cl)cc2Cl)n1 [Compound 221, 6-[(2-{[4-(2,4-Dichlorophenyl)-5-(4-methyl-1H-imidazol-2-yl)pyrimidin-2-yl]amino}ethyl)amino]pyridine-3-carbonitrile] | 131 | 1.8228 | 1.38 | 21203 | 21070 | 0.4291 |
| CC(C)(O)CCn1nc(C2=C(c3cn(-c4cccnc4)c4ccccc34)C(=O)NC2=O)c2ccccc21 [Compound 223, 3-[1-(3-Hydroxy-3-methylbutyl)-1H-indazol-3-yl]-4-(1-pyridin-3-yl-1H-indol-3-yl)-1H-pyrrole-2,5-dione] | 129 | 1.7982 | 0.948 | 9871 | 14529 |  |
| O=C1NC(=O)C(c2nn(CCO)c3ccccc23)=C1c1cn(-c2cncnc2)c2ccccc12 [Compound 226, 3-[1-(2-Hydroxyethyl)-1H-indazol-3-yl]-4-(1-pyrimidin-5-yl-1H-indol-3-yl)-1H-pyrrole-2,5-dione] | 120 | 1.6825 | 0.634 | 7650 | 9716 |  |
| O=C1NC(=O)C(c2cn(-c3cncnc3)c3ccccc23)=C1c1cn(CCO)c2ccccc12 [Compound 230, 3-[1-(2-Hydroxyethyl)-1H-indol-3-yl]-4-(1-pyrimidin-5-yl-1H-indol-3-yl)-1H-pyrrole-2,5-dione] | 147 | 2.0358 | 1.31 | 16884 | 20079 |  |
| Cn1cc(C2=C(c3nn(CCCn4ccnc4)c4ccccc34)C(=O)NC2=O)c2cc(Cl)ccc21 [Compound 231, 3-(5-Chloro-1-methyl-1H-indol-3-yl)-4-{1-[3-(1H-imidazol-1-yl)propyl]-1H-indazol-3-yl}-1H-pyrrole-2,5-dione] | 114 | 1.6020 | 0.9 | 11369 | 13789 |  |
| Cn1cc(C2=C(c3nn(CCCn4ccnn4)c4ccccc34)C(=O)NC2=O)c2cc(Cl)ccc21 [Compound 232, 3-(5-Chloro-1-methyl-1H-indol-3-yl)-4-{1-[3-(1H-1,2,3-triazol-1-yl)propyl]-1H-indazol-3-yl}-1H-pyrrole-2,5-dione] | 132 | 1.8323 | 1.09 | 14950 | 16652 |  |
| O=C1NC(=O)C2=C1Nc1cccc(c1)OCCC/C=C\CCCOc1cccc2c1 [Compound 233, (11Z)-8,9,10,13,14,15-Hexahydro-2,6:17,21-di(metheno)pyrrolo[3,4-h][1,15,7]dioxazacyclotricosine-22,24(1H,23H)-dione] | 93 | 1.3325 |  | 4357 | 6470 |  |
